According to patent US8399447B2, “Metal triangulo compound and methods of using the same” (National University of Singapore, priority 2007, dated 2013):
Entries after “also recorded” stand apart in the source; their conditions may differ.

Tests used:
cells = test: Intracellular pH with BCECF; assay type: cell-based; conditions: FIG. 5C
Protocol: (§1) (A) Jurkat cells and (B) HL-60 cells (2×10^6) were incubated with 12.5 and 25 μM [Os3(CO)10(μ-H)(μ-S)C9H6N] and […] O2^− was measured by a lucigenine-based chemiluminescence assay (C) A, cytosolic pH was determined with the pH-sensitive probe 2′,7′-bis(2-carboxyethyl)-5,6-carboxy-fluorescein.
Intracellular (pHi) was measured by loading cells with […] dye BCECF (Sigma). Briefly, cells (1×10^6) before or after exposure (2-12 h at 37° C.) to [Os3(CO)10(μ-H)(μ-S)C9H6N] was washed once with HBSS, resuspended in 0.1 ml of HBSS, and loaded with […] of 1 mM BCECF at 37° C. for 30 min in the dark. Cells were then resuspended in 0.5 ml of HBSS and analyzed using a Coulter Epics Elite ESP (Coulter, Hialeah, Fla.) flow cytometer with the excitation set at 488 nm. A minimum of 10,000 events was analyzed, and the ratio of BCECF fluorescence at 525 and 610 was used to obtain intracellular pH from a pH calibration curve. […] Immediately before flow cytometry, cells were loaded with […] nigericin (1 mM stock in absolute alcohol; Sigma), and fluorescence ratio measurements (525 nm/610 nm) of cells in nigericin-containing buffers of a range of pH were then used to relate histogram channel numbers to ipH. […]

cytochrome C = test: Western blotting for cytochrome C release; assay type: cell-based, human; conditions: HL60 cells, 12.5 and 25 μM, 12 hours
Protocol: (§2) FIG. 12 illustrates that [Os3(CO)10(μ-H)(2-S)C9H6N] induces apoptosis through the mitochondrial pathway. HL60 cells (30×10^6) were treated with 12.5 (A) and 25 μM (B) of [Os3(CO)10(μ-H)(μ-S)C9H6N] treated for 12 hours and cytosolic and mitochondria fractions were subjected to SDS-PAGE electrophoresis, transferred to PVDF membrane, and probe with anti-Cyt.C and anti-Bax antibodies (C). Anti-βactin antibody was used to assess equal loading of samples.
Cytochrome c release was assessed by Western blot analysis of cytosolic extracts from 30×10^6 cells as described previously (Hirpara, J. L. et al., J. Biol. Chem. (2001) 276, 514-521, incorporated herein by reference in its entirety; Pervaiz et al., 1999, supra). Cytosolic fractions were obtained and analysed by Western blotting.
Briefly, cells were washed twice with ice-cold PBS, pH 7.4, followed by centrifugation at 200×g for 5 minutes. The cell pellet was then resuspended in 600 μL of extraction buffer, containing 200 mmol/L mannitol, 68 mmol/L sucrose, 50 mmol/L PIPES-KOH, pH 7.4, 50 mmol/L KCl, 5 mmol/L EGTA, 2 mmol/L MgCl2, 1 mmol/L DTT, and protease inhibitors (Complete Cocktail; Boehringer Mannheim, Mannheim, Germany). […] Signal was detected by the Super Signal Substrate Western Blotting kit (Pierce).

caspases 2, 8, 9, and 3 [1] = test: Caspase activities (AFC substrates), Jurkat; assay type: cell-based; conditions: Jurkat cells, within 6 hours
Protocol: (§3) Activities of caspases 8, 2, 9, and 3 were determined in lysates of [Os3(CO)10(μ-H)(μ-S)C9H6N]-treated (A) Jurkat and (B) HL 60 cells and shown as fold increase over untreated cells.
(§4) Caspases 2, 3, 8, and 9 activities were assayed by using AFC-conjugated substrates supplied by Bio-Rad. Cells (1×10^6 cells/ml) were incubated with the drugs over a time course, washed twice with 1×PBS, resuspended in 50 μl of chilled cell lysis buffer (provided by the supplier), and incubated on ice for 10 min. 50 μl of 2× reaction buffer (10 mM HEPES, 2 mM EDTA, 10 mM KCl, 1.5 mM MgCl2, 10 mM dithiothreitol) and […] of the fluorogenic caspase-specific (VDVAD-AFC for caspase 2, DEVD-AFC for caspase 3, IETD-AFC for caspase 8, and LEHDAFC for caspase 9) were added to each sample and incubated at 37° C. for 1 h. Protease activity was determined by the relative fluorescence intensity at 505 nm following excitation at 400 nm using a spectrofluorimeter (Luminescence Spectrometer LS50B, PerkinElmer Life Sciences, Buckinghamshire, United Kingdom).

Bax = test: Western blot of Bax sub-cellular localization; assay type: cell-based, human; conditions: HL60 cells, 12.5 and 25 μM, 12 hours
Protocol: as §2
For analysis of poly(ADP-ribose) polymerase cleavage, lysates from 2×10^6 cells were prepared in sample buffer [50 mmol/L Tris/HCl (pH 6.8), 6 mol/L urea, 3% SDS, 0.003% Bromphenol Blue, and 6% β-mercaptoethanol] and subjected to Western blot analysis using anti-poly(ADP-ribose) polymerase (clone C-2-10, PharMingen) as described (Pervaiz et al., 199, supra). For Western blot analysis of Bax, cells (2×10^6) were lysed by adding […] of chilled 1× radioimmunoprecipitation assay buffer lysis buffer, and 50 μg of protein were subjected to 15% PAGE and transferred to polyvinylidene difluoride as above. Alternatively for analysis of Bax dimerization/multimerization, cell lysates were subjected to 10% native gel electrophoresis. […] Chemiluminescence was detected as described above.

HL-60 cells [2] = test: DNA fragmentation by propidium iodide flow cytometry, HL-60; assay type: cell-based, human; conditions: HL-60, 12.5 and 25 μM, 24 hours
Protocol: FIG. 4 depicts the detection of DNA Fragmentation. DNA cleavage in [Os3(CO)10(μ-H)(μ-S)C9H6N]-treated tumour cells was assessed using flow cytometric analysis. HL-60 cells were treated with 12.5 and 25 μM [Os3(CO)10(pt-H)(μ-S)C9H6N] for 24 hours, immediately fixed in ethanol, and stained with PI for DNA content analysis. SubG1 population indicates subdiplod DNA content indicative of apoptotic DNA fragmentation. Data shown are representative of at least three independent experiments.
For cellular DNA content determination, 1×10^6 cells/ml from each cell line were treated with [Os3(CO)10(μ-H)(μ-S)C9H6N]. After treatment, cells were washed twice with 1×PBS+1 FBS. Sample preparation and staining with PI for DNA content were performed as described elsewhere (32). […]
Fixed cells were left at 4° C. for 30 min, centrifuged at 1000×g for 5 min and washed once with 1×PBS+1% FBS. […] Stained cells were analyzed by flow cytometry with the excitation set at 488 nm and the emission set at 610 nm (red).
The ability of the cells to scatter light in a forward direction (FS) correlates with cell volume. Os drug-treated cells were analysed for changes in the intensity of FS as compared to untreated control cells. A total of 10,000 cells per sample were studied and data were analyzed by the WINMDI software.

jurkat cells = test: Intracellular superoxide, lucigenin chemiluminescence, Jurkat; assay type: cell-based; conditions: 12.5 and 25 μM, 2 h and 4 h (FIG. 5A)
Protocol: as §1
(§5) A lucigenin-based chemiluminescence assay is routinely used in the laboratory as detailed in Clement and Pervaiz (Pervaiz S, Clement M V, Methods Enzymol. (2002) 352, 150-159). In brief, chemiluminescence was monitored using a Berthold Sirius Luminometer (Berthold Detection Systems GmbH, Bleichstralβe/Pforzheim, Germany). Data are described as relative light units/mg of protein (RLU/mg protein). Protein concentration was determined using the Coomassie Plus protein assay reagent from Pierce (Pierce Chemical Company, Rockford, Ill., USA) as detailed by the manufacturer.
(§6) This example illustrates determining whether and to what extent apoptosis induced by an osmium triangulo compound of the present invention is accompanied by an increase in intracellular ROS production. Cells were exposed to [Os3(CO)10(μ-H)(μ-S)C9H6N] for 2 h and 4 h and intracellular O2^− production was measured by a lucigenin-based chemiluminescence assay.

Akt/PKB = test: Western blot of total Akt/PKB and Akt/PKB phosphorylation (Ser473); assay type: cell-based, human
Protocol: The capability of the varying doses of [Os3(CO)10(μ-H)(μ-S)C9H6N] to dephosphorylate and deactivate Akt was shown by Western blot. HL 60 cells (2×10^6) were incubated with varying doses of [Os3(CO)10(μ-H)(μ-S)C9H6N] (12.5 and 25 μM) for 2, 4, and 6 hours and cell lysates were obtained for Western blot analysis of the Akt phosphorylation status.
HL-60 cells (2×10^6) were plated in a 12 well plate followed by exposure to the drug. Cells were harvested, washed once with PBS, and then lysed with cell lysis buffer [150 mmol/L NaCl, Tris-HCl (pH 7.4), 1% NP40]. Cell lysate (200 μg) was then electrophoresed on an 8% acrylamide gel. Antibodies were used to probe for total Akt and phosphorylated Akt/PKB at the Ser473 position (Cell Signaling, Beverly, Mass.). Protein blots were probed with anti β-actin (Sigma-Aldrich, St. Louis, Mo.) to check for equal protein loading).

caspases 2, 8, 9, and 3 [3] = test: Caspase activities (AFC substrates), HL60; assay type: cell-based, human; conditions: HL60 cells, within 6 hours; more pronounced than in Jurkat
Protocol: as §3, §4

HL-60 cells [4] = test: Flow cytometric analysis of intracellular H2O2 (DCFH-DA); assay type: cell-based, human
Protocol: Cells were then loaded with DCFH-DA (5 μM) for 15 minutes and the amount of intracellular H2O2 generated was indicated by the shift in fluorescence as detected by flow cytometry.
Intracellular H2O2 was determined by staining with 2,7-dichloro-fluorescein diacetate (Molecular Probes, Eugene, Oreg.), which is oxidised to dichlorofluorescein by H2O2 described elsewhere (Hirpara, J. L., et al., J Biol. Chem. (2001) 276, 514-521). In brief, HL-60 cells were exposed to […] [Os3(CO)10(μ-H)(μ-S)C9H6N] 4 h, loaded with […] 2′,7′-dichlorofluorescein diacetate at 37° C. for […], and analysed by flow cytometry (Coulter Epics Elite ESP; excitation 488 nm). Catalase (1000 units/ml) was used to scavenge intracellular H2O2 before addition of the drugs and flow cytometric analysis of H2O2 for 4 h, followed by flow cytometry for H2O2. At least 10,000 events were analysed.

HL-60 cells [5] = test: Intracellular superoxide, lucigenin chemiluminescence, HL-60; assay type: cell-based, human; conditions: 12.5 and 25 μM, 2 h and 4 h (FIG. 5B)
Protocol: as §1, §5, §6

[6] = tested on: Jurkat Neo and Jurkat BCL2 cells; test: DNA fragmentation by PI, Jurkat Neo and Jurkat BCL2; assay type: cell-based; conditions: 12.5 and 25 μM, 18 hours; for DNA fragmentation / apoptosis with Bcl-2 overexpression: BCl2 overexpressing jurkat cells
Protocol: Jurkat Neo and Jurkat BCL2 cells were treated with 12.5 and 25 μM of [Os3(CO)10(μ-H)(μ-S)C9H6N] for 18 hours, immediately fixed in ethanol and stained with PI for DNA content analysis. Sub-G1 population indicates subdiploid DNA content indicative of apoptotic. The DNA fragmentation induced by [Os3(CO)10(μ-H)(μ-S)C9H6N] is inhibited in BCl2 overexpressing jurkat cells. Data shown are representative of at least three independent experiments.
For cellular DNA content determination, 1×10^6 cells/ml from each cell line were treated with [Os3(CO)10(μ-H)(μ-S)C9H6N]. After treatment, cells were washed twice with 1×PBS+1 FBS. Sample preparation and staining with PI for DNA content were performed as described elsewhere (32). Briefly, cell pellets were resuspended in 0.5 ml of 1×PBS+1% FBS and immediately fixed by adding 5 ml of 70% ethanol while vortexing to avoid clumping.
Fixed cells were left at 4° C. for 30 min, centrifuged at 1000×g for 5 min and washed once with 1×PBS+1% FBS. Cell pellets were then suspended in 0.5 ml of PI/RNAse. A solution prepared by adding 1/50 volume of PI stock and 1/40 volume of RNAse. A stock to 1×PBS+1% FBS and incubated for 30 min at 37° C. Stained cells were analyzed by flow cytometry with the excitation set at 488 nm and the emission set at 610 nm (red).

death receptor CD95 = test: Surface expression of CD95 by flow cytometry; assay type: cell-based, human; parameters: dose or concentration left out as unconfirmed; conditions: HL60 cells, 12 hours
Protocol: FIG. 8 depicts the upregulation of Cd95 by [Os3(CO)10(μ-H)(μ-S)C9H6N] in tumour cells. HL60 cells were treated with […] [Os3(CO)10(μ-H)(μ-S)C9H6N] for 12 hours and surface expression of CD95 was analysed by flow cytometry as described in Materials and Methods. The shaded histograms show unstained cells. Mouse IgG1k was used as an isotype control. At least 10,000 events were counted, and data shown are representative of at least three separate experiments.

[Os3(CO)10(μ-H)(μ-S)C9H6N]
cytosolic pH (cells): significant drop
cytochrome C release (cytochrome C): occurred in a dose dependent manner
activation of caspases 2, 8, 9 and 3 (caspases 2, 8, 9, and 3 [1]): induces caspase activation
sub-cellular localization of Bax (Bax): no significant change
percentage of sub-diploid DNA (sub-G1 fraction) (HL-60 cells [2]): increased significantly
intracellular O2− production (jurkat cells): early increase
total Akt signal (Akt/PKB; HL-60, 12.5 and 25 μM, 2, 4 and 6 hours): remained almost unchanged
Akt phosphorylation (Akt/PKB; HL-60, 12.5 and 25 μM, within 4 to 6 hours of exposure): down regulation; also recorded: strong inhibition
activation of caspases 2, 8, 9 and 3 (caspases 2, 8, 9, and 3 [3]): induces caspase activation
intracellular H2O2 (HL-60 cells [4]; HL-60, 12.5 and 25 μM, within 4 hours): significant surge
intracellular H2O2 in presence of catalase (HL-60 cells [4]; HL-60, catalase 1000 U/ml): completely blocked
intracellular O2− production (HL-60 cells [5]): early increase
DNA fragmentation / apoptosis with Bcl-2 overexpression [6]: inhibited
DNA fragmentation / apoptosis with Bcl-2 overexpression ([6]; listed as [Os3(CO)10(μ-H)(μ-S)C9H9N]): blocked
DNA fragmentation (sub-G1) ([6]; Jurkat Neo): induces DNA fragmentation
surface expression of CD95 (death receptor CD95): upregulation; also recorded: significant increase
